Test results as given in publication PMC11855478, “Bicyclic N,S-Acetals Containing Fused Cysteine-Amide System as New Heterocyclic Class Targeting Human Farnesyltransferase (FTase-h)” (International Journal of Molecular Sciences, 2025).

How the values were obtained:
Format in all cases: cell-based, human
[1] = test system: MOLT-4 (Leukemia); experiment: NCI one dose, MOLT-4; details: MOLT-4, 1.00E-5 Molar one dose
Experimental: (§1) 3.4. Cell Proliferation Assay
(§2) Selected compounds were tested on a panel of 60 human cancer cell lines at the National Cancer Institute (NCI), Germantown, MD, USA. The cytotoxicity studies were conducted using a 48 h exposure protocol using the sulfo-rhodamine B assay.

[2] = test system: RPMI-8226 (Leukemia); experiment: NCI one dose, RPMI-8226; details: RPMI-8226, 1.00E-5 Molar one dose
Experimental: as §1, §2

[3] = test system: HOP-62 (Non-Small Cell Lung Cancer); experiment: NCI one dose, HOP-62; details: HOP-62, 1.00E-5 Molar one dose
Experimental: as §1, §2

[4] = test system: NCI-H322M (Non-Small Cell Lung Cancer); experiment: NCI one dose, NCI-H322M; details: 1.00E-5 Molar one dose
Experimental: as §1, §2

[5] = test system: NCI-H522 non-small cell lung cancer cells; experiment: NCI cell proliferation, NCI-H522; details: for inhibition at 10 µM: Homo sapiens, NCI-H522, read-out: % Cancer cell growth Inhibition (NCI-H522); for Growth Percent: NCI-H522, 1.00E-5 Molar one dose
Experimental: as §1, §2

[6] = test system: HCC-2998 (Colon Cancer); experiment: NCI one dose, HCC-2998; details: HCC-2998, 1.00E-5 Molar one dose
Experimental: as §1, §2

[7] = test system: HCT-15 (Colon Cancer); experiment: NCI one dose, HCT-15; details: HCT-15, 1.00E-5 Molar one dose
Experimental: as §1, §2

[8] = test system: HT29 (Colon Cancer); experiment: NCI one dose, HT29; details: HT29, 1.00E-5 Molar one dose
Experimental: as §1, §2

[9] = test system: KM12 (Colon Cancer); experiment: NCI one dose, KM12; details: KM12, 1.00E-5 Molar one dose
Experimental: as §1, §2

[10] = test system: SW-620 (Colon Cancer); experiment: NCI one dose, SW-620; details: SW-620, 1.00E-5 Molar one dose
Experimental: as §1, §2

[11] = test system: SF-268 (CNS Cancer); experiment: NCI one dose, SF-268; details: SF-268, 1.00E-5 Molar one dose
Experimental: as §1, §2

[12] = test system: SF-295 (CNS Cancer); experiment: NCI one dose, SF-295; details: SF-295, 1.00E-5 Molar one dose
Experimental: as §1, §2

[13] = test system: SNB-19 (CNS Cancer); experiment: NCI one dose, SNB-19; details: SNB-19, 1.00E-5 Molar one dose
Experimental: as §1, §2

[14] = test system: U251 (CNS Cancer); experiment: NCI one dose, U251; details: U251, 1.00E-5 Molar one dose
Experimental: as §1, §2

[15] = test system: MALME-3M (Melanoma); experiment: NCI one dose, MALME-3M; details: 1.00E-5 Molar one dose
Experimental: as §1, §2

[16] = test system: M14 (Melanoma); experiment: NCI one dose, M14; details: M14, 1.00E-5 Molar one dose
Experimental: as §1, §2

[17] = test system: SK-MEL-2 (Melanoma); experiment: NCI one dose, SK-MEL-2; details: SK-MEL-2, 1.00E-5 Molar one dose
Experimental: as §1, §2

[18] = test system: SK-MEL-28 (Melanoma); experiment: NCI one dose, SK-MEL-28; details: SK-MEL-28, 1.00E-5 Molar one dose
Experimental: as §1, §2

[19] = test system: UACC-257 melanoma cells; experiment: NCI one dose, UACC-257; details: UACC-257, 1.00E-5 Molar one dose
Experimental: as §1, §2

[20] = test system: UACC-62 (Melanoma); experiment: NCI one dose, UACC-62; details: UACC-62, 1.00E-5 Molar one dose
Experimental: as §1, §2

[21] = test system: IGROV1 (Ovarian Cancer); experiment: NCI one dose, IGROV1; details: IGROV1, 1.00E-5 Molar one dose
Experimental: as §1, §2

[22] = test system: OVCAR-5 (Ovarian Cancer); experiment: NCI one dose, OVCAR-5; details: OVCAR-5, 1.00E-5 Molar one dose
Experimental: as §1, §2

[23] = test system: SK-OV-3 (Ovarian Cancer); experiment: NCI one dose, SK-OV-3; details: SK-OV-3, 1.00E-5 Molar one dose
Experimental: as §1, §2

[24] = test system: 786-0 (Renal Cancer); experiment: NCI one dose, 786-0; details: 786-0, 1.00E-5 Molar one dose
Experimental: as §1, §2

[25] = test system: A498 (Renal Cancer); experiment: NCI one dose, A498; details: A498, 1.00E-5 Molar one dose
Experimental: as §1, §2

[26] = test system: ACHN (Renal Cancer); experiment: NCI one dose, ACHN; details: 1.00E-5 Molar one dose
Experimental: as §1, §2

[27] = test system: CAKI-1 (Renal Cancer); experiment: NCI one dose, CAKI-1; details: CAKI-1, 1.00E-5 Molar one dose
Experimental: as §1, §2

[28] = test system: TK-10 (Renal Cancer); experiment: NCI one dose, TK-10; details: TK-10, 1.00E-5 Molar one dose
Experimental: as §1, §2

[29] = test system: PC-3 (Prostate Cancer); experiment: NCI one dose, PC-3; details: PC-3, 1.00E-5 Molar one dose
Experimental: as §1, §2

[30] = test system: DU-145 (Prostate Cancer); experiment: NCI one dose, DU-145; details: DU-145, 1.00E-5 Molar one dose
Experimental: as §1, §2

[31] = test system: MDA-MB-231/ATCC (Breast Cancer); experiment: NCI one dose, MDA-MB-231/ATCC; details: 1.00E-5 Molar one dose
Experimental: as §1, §2

[32] = test system: HS 578T (Breast Cancer); experiment: NCI one dose, HS 578T; details: 1.00E-5 Molar one dose
Experimental: as §1, §2

[33] = test system: BT-549 (Breast Cancer); experiment: NCI one dose, BT-549; details: BT-549, 1.00E-5 Molar one dose
Experimental: as §1, §2

[34] = test system: MDA-MB-468 breast cancer cells; experiment: NCI one dose, MDA-MB-468; details: MDA-MB-468, 1.00E-5 Molar one dose
Experimental: as §1, §2

| SMILES | Growth Percent [1] [%] | Growth Percent [2] [%] | Growth Percent [3] [%] | Growth Percent [4] [%] | inhibition at 10 µM [5] [%] | Growth Percent [5] [%] | Growth Percent [6] [%] | Growth Percent [7] [%] | Growth Percent [8] [%] | Growth Percent [9] [%] | Growth Percent [10] [%] | Growth Percent [11] [%] | Growth Percent [12] [%] | Growth Percent [13] [%] | Growth Percent [14] [%] | Growth Percent [15] [%] | Growth Percent [16] [%] | Growth Percent [17] [%] | Growth Percent [18] [%] | Growth Percent [19] [%] | other results |
| --- | --- | --- | --- | --- | --- | --- | --- | --- | --- | --- | --- | --- | --- | --- | --- | --- | --- | --- | --- | --- | --- |
| O=C(NCc1ccccc1)[C@@H]1CS[C@H]2c3ccccc3C(=O)N12 [4aA] | 95.69 | 105.32 | 97.31 | 102.34 | 13 | 79.32 | 101.83 | 103.68 | 99.44 | 110.51 | 102.46 | 90.56 | 99.96 | 96.70 | 97.80 | 111.55 | 94.47 | 105.03 | 110.09 | 96.60 | Growth Percent [20]: 97.72%; Growth Percent [21]: 105.80%; Growth Percent [22]: 91.72%; Growth Percent [23]: 102.04%; Growth Percent [24]: 85.46%; Growth Percent [25]: 102.15%; Growth Percent [26]: 102.35%; Growth Percent [27]: 94.90%; Growth Percent [28]: 96.56%; Growth Percent [29]: 96.96%; Growth Percent [30]: 111.90%; Growth Percent [31]: 100.79%; Growth Percent [32]: 107.68%; Growth Percent [33]: 93.57%; Growth Percent [34]: 105.86% |
| O=C(NCc1ccccc1C(F)(F)F)[C@@H]1CS[C@H]2c3ccccc3C(=O)N12 [4aC] | 85.46 | 87.69 | 87.37 | 103.27 | 22 | 78.18 | 111.38 | 103.73 | 91.65 | 102.90 | 104.34 | 93.86 | 94.85 | 95.80 | 91.06 | 108.73 | 95.62 | 99.87 | 99.12 | 86.31 | Growth Percent [20]: 88.82%; Growth Percent [21]: 98.93%; Growth Percent [22]: 83.18%; Growth Percent [23]: 85.91%; Growth Percent [24]: 86.33%; Growth Percent [25]: 98.14%; Growth Percent [26]: 99.65%; Growth Percent [27]: 97.48%; Growth Percent [28]: 108.86%; Growth Percent [29]: 85.22%; Growth Percent [30]: 107.34%; Growth Percent [31]: 91.35%; Growth Percent [32]: 104.53%; Growth Percent [33]: 96.07%; Growth Percent [34]: 112.27% |
| O=C(NCc1cccc(C(F)(F)F)c1)[C@@H]1CS[C@H]2c3ccccc3C(=O)N12 [4aD] | 86.93 | 94.54 | 85.91 | 93.97 | 25 | 74.73 | 121.37 | 100.16 | 91.88 | 98.82 | 107.41 | 96.16 | 95.03 | 95.15 | 94.74 | 106.15 | 97.50 | 94.10 | 108.89 | 89.32 | Growth Percent [20]: 89.84%; Growth Percent [21]: 95.38%; Growth Percent [22]: 97.67%; Growth Percent [23]: 88.01%; Growth Percent [24]: 88.74%; Growth Percent [25]: 103.16%; Growth Percent [26]: 101.09%; Growth Percent [27]: 97.61%; Growth Percent [28]: 117.52%; Growth Percent [29]: 86.39%; Growth Percent [30]: 110.52%; Growth Percent [31]: 97.44%; Growth Percent [32]: 110.09%; Growth Percent [33]: 92.70%; Growth Percent [34]: 98.77% |
| COc1ccc(CNC(=O)[C@@H]2CS[C@H]3c4ccccc4C(=O)N23)cc1 [4aF] | 97.28 | 101.90 | 94.33 | 88.19 | 13 | 87.40 | 114.93 | 100.29 | 103.88 | 100.55 | 105.03 | 101.17 | 95.57 | 90.14 | 98.53 | 100.21 | 99.91 | 118.58 | 102.14 | 97.39 | Growth Percent [20]: 91.16%; Growth Percent [21]: 93.78%; Growth Percent [22]: 95.48%; Growth Percent [23]: 99.01%; Growth Percent [24]: 97.97%; Growth Percent [25]: 105.77%; Growth Percent [26]: 95.49%; Growth Percent [27]: 97.50%; Growth Percent [28]: 105.25%; Growth Percent [29]: 90.27%; Growth Percent [30]: 116.46%; Growth Percent [31]: 107.73%; Growth Percent [32]: 104.20%; Growth Percent [33]: 103.55%; Growth Percent [34]: 122.00% |
| O=C(NCc1ccc(Cl)cc1Cl)[C@@H]1CS[C@H]2c3ccccc3C(=O)N12 [4aH] | 79.54 | 80.68 | 97.52 | 91.63 | 27 | 72.97 | 102.84 | 102.53 | 96.30 | 99.99 | 105.59 | 98.11 | 95.60 | 97.06 | 95.21 | 107.73 | 99.48 | 99.61 | 103.04 | 96.52 | Growth Percent [20]: 85.33%; Growth Percent [21]: 101.47%; Growth Percent [22]: 104.58%; Growth Percent [23]: 103.37%; Growth Percent [24]: 89.83%; Growth Percent [25]: 101.60%; Growth Percent [26]: 99.60%; Growth Percent [27]: 101.46%; Growth Percent [28]: 103.48%; Growth Percent [29]: 81.35%; Growth Percent [30]: 109.93%; Growth Percent [31]: 110.76%; Growth Percent [32]: 113.78%; Growth Percent [33]: 97.76%; Growth Percent [34]: 91.86% |
